{
  "source": "PubChem BioAssay AID1963966",
  "about": "(Molecular Pharmacology Branch, DTP, NCI, 2024);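 also: compound exposure lasted seven days before viability was read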;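 as to viability, T/C: percent of vehicle DMSO treated spheroid viability so 100% = untreated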",
  "test_system": "935938-334-R-J1-PDC spheroids with HUVEC/MSC, viability",
  "test": "Anticancer human tumor 935938-334-R-J1-PDC patient-derived small intestine adenocarcinoma cell line growth inhibition [PI3K]",
  "details": "for IC50: curve of first compound; for viability, T/C: stronger effect = lower value",
  "how_it_was_run": "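Targeted small molecules plus PI3K inhibitors, half-log dose series from Cmax (default top 10 microM), were applied to heterotypic spheroids of cancer cells with HUVEC and MSCs. Viability indicated growth inhibition.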",
  "data": [
    {"smiles": "C[C@@H](NC(=O)c1ncnc(N)c1Cl)c1ncc(C(=O)Nc2cc(C(F)(F)F)c(Cl)cn2)s1", "note": "+ Cc1nc(NC(=O)N2CCCC2C(N)=O)sc1-c1ccnc(C(C)(C)C(F)(F)F)c1", "values": [
      {"measurement": "IC50", "setting": "second compound 0.0316 µM", "value": "> 10", "unit": "µM"},
      {"measurement": "IC50", "setting": "second compound 0.1 µM", "value": "> 10", "unit": "µM"},
      {"measurement": "IC50", "setting": "second compound 0.316 µM", "value": "> 10", "unit": "µM"},
      {"measurement": "IC50", "setting": "second compound 1 µM", "value": "> 10", "unit": "µM"},
      {"measurement": "IC50", "setting": "second compound 3.16 µM", "value": 6.67, "unit": "µM"},
      {"measurement": "IC50", "setting": "second compound 10 µM", "value": 0.272, "unit": "µM"},
      {"measurement": "viability, T/C", "setting": "second compound 0.0316 µM, first compound 0.0316 µM", "value": 112, "unit": "%"},
      {"measurement": "viability, T/C", "setting": "second compound 0.0316 µM, first compound 0.1 µM", "value": 100, "unit": "%"},
      {"measurement": "viability, T/C", "setting": "second compound 0.0316 µM, first compound 0.316 µM", "value": 98.7, "unit": "%"},
      {"measurement": "viability, T/C", "setting": "second compound 0.0316 µM, first compound 1 µM", "value": 88.1, "unit": "%"},
      {"measurement": "viability, T/C", "setting": "second compound 0.0316 µM, first compound 3.16 µM", "value": 90.7, "unit": "%"},
      {"measurement": "viability, T/C", "setting": "second compound 0.0316 µM, first compound 10 µM", "value": 81.6, "unit": "%"},
      {"measurement": "viability, T/C", "setting": "second compound 0.1 µM, first compound 0.0316 µM", "value": 94.1, "unit": "%"},
      {"measurement": "viability, T/C", "setting": "second compound 0.1 µM, first compound 0.1 µM", "value": 108, "unit": "%"},
      {"measurement": "viability, T/C", "setting": "second compound 0.1 µM, first compound 0.316 µM", "value": 101, "unit": "%"},
      {"measurement": "viability, T/C", "setting": "second compound 0.1 µM, first compound 1 µM", "value": 115, "unit": "%"},
      {"measurement": "viability, T/C", "setting": "second compound 0.1 µM, first compound 3.16 µM", "value": 95.5, "unit": "%"},
      {"measurement": "viability, T/C", "setting": "second compound 0.1 µM, first compound 10 µM", "value": 68.6, "unit": "%"},
      {"measurement": "viability, T/C", "setting": "second compound 0.316 µM, first compound 0.0316 µM", "value": 104, "unit": "%"},
      {"measurement": "viability, T/C", "setting": "second compound 0.316 µM, first compound 0.1 µM", "value": 108, "unit": "%"},
      {"measurement": "viability, T/C", "setting": "second compound 0.316 µM, first compound 0.316 µM", "value": 109, "unit": "%"},
      {"measurement": "viability, T/C", "setting": "second compound 0.316 µM, first compound 1 µM", "value": 87.8, "unit": "%"},
      {"measurement": "viability, T/C", "setting": "second compound 0.316 µM, first compound 3.16 µM", "value": 89.8, "unit": "%"},
      {"measurement": "viability, T/C", "setting": "second compound 0.316 µM, first compound 10 µM", "value": 78, "unit": "%"},
      {"measurement": "viability, T/C", "setting": "second compound 1 µM, first compound 0.0316 µM", "value": 105, "unit": "%"},
      {"measurement": "viability, T/C", "setting": "second compound 1 µM, first compound 0.1 µM", "value": 80.4, "unit": "%"},
      {"measurement": "viability, T/C", "setting": "second compound 1 µM, first compound 0.316 µM", "value": 87.4, "unit": "%"},
      {"measurement": "viability, T/C", "setting": "second compound 1 µM, first compound 1 µM", "value": 89.5, "unit": "%"},
      {"measurement": "viability, T/C", "setting": "second compound 1 µM, first compound 3.16 µM", "value": 79.9, "unit": "%"},
      {"measurement": "viability, T/C", "setting": "second compound 1 µM, first compound 10 µM", "value": 68.2, "unit": "%"},
      {"measurement": "viability, T/C", "setting": "second compound 3.16 µM, first compound 0.0316 µM", "value": 53.6, "unit": "%"},
      {"measurement": "viability, T/C", "setting": "second compound 3.16 µM, first compound 0.1 µM", "value": 55.6, "unit": "%"},
      {"measurement": "viability, T/C", "setting": "second compound 3.16 µM, first compound 0.316 µM", "value": 79.6, "unit": "%"},
      {"measurement": "viability, T/C", "setting": "second compound 3.16 µM, first compound 1 µM", "value": 62, "unit": "%"},
      {"measurement": "viability, T/C", "setting": "second compound 3.16 µM, first compound 3.16 µM", "value": 61.9, "unit": "%"},
      {"measurement": "viability, T/C", "setting": "second compound 3.16 µM, first compound 10 µM", "value": 31.2, "unit": "%"},
      {"measurement": "viability, T/C", "setting": "second compound 10 µM, first compound 0.0316 µM", "value": 50.6, "unit": "%"},
      {"measurement": "viability, T/C", "setting": "second compound 10 µM, first compound 0.1 µM", "value": 63.9, "unit": "%"},
      {"measurement": "viability, T/C", "setting": "second compound 10 µM, first compound 0.316 µM", "value": 41.4, "unit": "%"},
      {"measurement": "viability, T/C", "setting": "second compound 10 µM, first compound 1 µM", "value": 44.5, "unit": "%"},
      {"measurement": "viability, T/C", "setting": "second compound 10 µM, first compound 3.16 µM", "value": 37.2, "unit": "%"},
      {"measurement": "viability, T/C", "setting": "second compound 10 µM, first compound 10 µM", "value": 22.8, "unit": "%"}
    ]}
  ]
}
